{"source": "patent US5091539A", "about": "“Azolyl cycloalkanol derivatives and agricultural fungicides” (Shionogi & Co., Ltd., priority 1984, dated 1992)", "format_in_all_cases": "in vivo", "key": {"Rhizoctonia solani": {"system": "Rhizoctonia solani", "experiment": "Control test to damping-off of cucumber (Rhizoctonia solani)", "conditions": "soil drench, 14 days", "procedure": "(1) The fungus causing damping-off of cucumber seedlings, Rhizoctonia solani or Fusarium oxysporum was cultured on a wheat bran medium at 28° C. for 5 days, which was mixed with sterilized soil and cultured for 2 days to prepare the inoculum. Sterilized soil (150 g) was put into a pot of 9 cm in diameter. The surface of the spot was covered with the above inoculum. […] Twenty cucumber seeds (Cultivar: Matsukaze) were sown 2 days after. The pots were kept at 30°±2° C. for 14 days. The infection was observed 14 days after and disease degree and percent disease degree were obtained by setting an evaluation index for each disease sympton.\n(2) Evaluation [formula] wherein a: number of seeds without germination b: number of seedlings showing damping-off c: number of wilted seedlings d: number of seedlings being a little brownish in cotyledons or at the bottom of the stem e: number of uninfected seedlings [formula] wherein a: number of seeds without germination or seedlings with damping-off b: number of wilted seedlings c: number of seedlings being a little brownish in cotyledons or at the bottom of the stem d: number of uninfected seedlings [formula]"}, "Botrytis cinerea": {"system": "Botrytis cinerea", "experiment": "Control test of Botrytis rot (gray mold) of cucumber", "procedure": "(1) Seedlings of cucumber (Cultivar: Matsukaze) were planted in a pot of 9 cm in diameter. The first leaf was sprayed with 3 ml each of solutions containing the test compound at the concentration of 125 or 31.3 ppm and the plant was dried by the air. After inoculation of the spores of Botrytis cinerea, the plants were kept at 20°±2° C. and 90-100% humidity ((i) protective spraying). Alternatively, the spores were inoculated at first and when the leaves suffered a little (about 2 days after), the solutions of the test compounds were sprayed ((ii) curative spraying). Evaluation was practised 3 days after the inoculation. Percent disease control was calculated by the ratio of diameter of diseased area in treated and untreated plants.\n(§1) (1) Test methods and evaluation are the same as those in Tests 2, 4 and 6."}, "Sclerotinia sclerotiorum": {"system": "Sclerotinia sclerotiorum", "experiment": "Control test to Sclerotinia rot of cucumber", "from_the_text": "(1) This test was practised in the same manner as in the above test, control test of Botrytis rot (gray mold) of cucumber, except for using the mycelium of Sclerotinia sclerotiorum as inoculm. The same as in test 2."}, "Sphaerotheca fuliginea [1]": {"system": "Sphaerotheca fuliginea", "experiment": "Control test to powdery mildew of cucumber (foliar and soil treatment)", "conditions": "index 0-10", "procedure": "(1) Seeds of cucumber (Cultivar: Matsukaze) were sown in a pot of 9 cm in diameter and the pots were kept in a green house until the plant was grown for 2-3 leaf stage. The first leaf was sprayed with, (i) 3 ml each of solutions containing the test compound at the prescribed concetrations and dried by the air (foliar treatment). Inoculation of spore suspension of Sphaerotheca fuliginea by spraying was practised 2 days before the treatment (curative effect) or 1 day after the treatment (protective effect). Alternatively, (ii) 5 ml of the solution was applied at the root of the seedlings (soil treatment). The pots were kept in a greenhouse for 2 days and inoculation was practised in the same manner noted above. (iii) After sprayed with 3 ml of a solution of the test compound at a concentration of 125 ppm and dried by the air, the treated pots were set in a greenhouse. Untreated pots were placed next to the treated pots. Those treated and untreated plants were inoculated with spore suspension. Protective effect of the test compounds by vapor was thus checked. The effect was examined 14 days after the inoculation of the spores.\n0: Disease sign is observed on the whole leaf.\n3: Disease sign is observed on the leaf in about 50%.\n5: Disease sign is observed on the leaf in about 30%.\n7: Disease sign is observed on the leaf in about 20%.\n9: a little disease sign is observed.\nas §1"}, "Sphaerotheca fuliginea [2]": {"system": "Sphaerotheca fuliginea", "experiment": "Control test to powdery mildew of cucumber by vapor (filter paper disks)", "procedure": "(1) The first leaves of young cucumber (Cultivar: Matsukaze) planted in pot of 9 cm in diameter were inoculated with spore suspension of Sphaerotheca fuliginea. After the plants were kept in a greenhouse for 2 days, thin cover plates, 15 mm in diameter, were put on the first leaves. Filter paper disks soaked with 80 μl of test solution at a concentration of 31.3, 7.8, 2.0 or 0.5 ppm were put on the plates for 3 days. Disease degrees were observed 14 days after the inoculation.\nIt is evaluated as + when an inhibition zone was observed around the plate, as ± when the inhibition zone has nearly the same diameter (8 mm) as that of plate or as - when there is no inhibition zone.\nas §1"}, "Puccinia coronata": {"system": "Puccinia coronata", "experiment": "Control test of crown rust of oat", "conditions": "125 ppm", "procedure": "(1) Young oats (Cultivar: Pc38) grown in pots in a greenhouse were (i) sprayed with 10 ml each of solution of the test compounds at a prescribed concentration and after air-drying, they were inoculated with 15 mg of uredospores of Puccinia coronata per 20 pots (protective spraying) or (ii) sprayed with the test solution 3 days after inoculation of uredospores. After each plant was kept at 20°-25° C. in a greenhouse for 2 weeks, number of uredia was counted on the first leaf."}}, "data": [{"smiles": "Cc1ccccc1C(=O)Nc1cccc(OC(C)C)c1", "note": "[Mepronil, reference compound]", "values": [{"measurement": "Disease Degree", "setting": "Rhizoctonia solani; 47 ppm", "value": 77}, {"measurement": "Percent Disease Control", "setting": "Rhizoctonia solani; 47 ppm", "value": 23, "unit": "%"}, {"measurement": "Disease Degree", "setting": "Rhizoctonia solani; 750 ppm", "value": 5}, {"measurement": "Percent Disease Control", "setting": "Rhizoctonia solani; 750 ppm", "value": 95, "unit": "%"}]}, {"smiles": "CC(C)NC(=O)N1CC(=O)N(c2cc(Cl)cc(Cl)c2)C1=O", "note": "[Iprodione, reference compound]", "values": [{"measurement": "Percent Disease Control, Curative Spraying", "setting": "Botrytis cinerea; Table 2, 31.3 ppm", "value": 64, "unit": "%"}, {"measurement": "Percent Disease Control, Protective Spraying", "setting": "Botrytis cinerea; Table 2, 31.3 ppm", "value": 100, "unit": "%"}, {"measurement": "Percent Disease Control, Curative Spraying", "setting": "Botrytis cinerea; Table 2, 125 ppm", "value": 90, "unit": "%"}, {"measurement": "Percent Disease Control, Protective Spraying", "setting": "Botrytis cinerea; Table 2, 125 ppm", "value": 100, "unit": "%"}, {"measurement": "Percent Disease Control, Curative Spraying", "setting": "Sclerotinia sclerotiorum; 31.3 ppm", "value": 77, "unit": "%"}, {"measurement": "Percent Disease Control, Protective Spraying", "setting": "Sclerotinia sclerotiorum; 31.3 ppm", "value": 100, "unit": "%"}, {"measurement": "Percent Disease Control, Curative Spraying", "setting": "Sclerotinia sclerotiorum; 125 ppm", "value": 90, "unit": "%"}, {"measurement": "Percent Disease Control, Protective Spraying", "setting": "Sclerotinia sclerotiorum; 125 ppm", "value": 100, "unit": "%"}]}, {"smiles": "O[C@]1(c2ccc(F)cc2)CCCC[C@H]1n1cncn1", "note": "(relative stereo) [Trans-isomer of Compound 28, 1-(4-fluorophenyl)-2-(1,2,4-triazol-1-yl)cyclohexanol, reference compound]", "values": [{"measurement": "Powdery mildew, Foliar Treatment, Curative Effect", "setting": "Sphaerotheca fuliginea [1]; Table 9, 0.03 ppm", "value": 0}, {"measurement": "Powdery mildew, Foliar Treatment, Protective Effect", "setting": "Sphaerotheca fuliginea [1]; Table 9, 0.03 ppm", "value": 0}, {"measurement": "Powdery mildew, Foliar Treatment, Curative Effect", "setting": "Sphaerotheca fuliginea [1]; Table 9, 0.12 ppm", "value": 0}, {"measurement": "Powdery mildew, Foliar Treatment, Protective Effect", "setting": "Sphaerotheca fuliginea [1]; Table 9, 0.12 ppm", "value": 0}, {"measurement": "Powdery mildew, Foliar Treatment, Curative Effect", "setting": "Sphaerotheca fuliginea [1]; Table 9, 0.5 ppm", "value": 0}, {"measurement": "Powdery mildew, Foliar Treatment, Protective Effect", "setting": "Sphaerotheca fuliginea [1]; Table 9, 0.5 ppm", "value": 0}, {"measurement": "Powdery mildew, Soil Treatment, Protective Effect", "setting": "Sphaerotheca fuliginea [1]; Table 9, 0.5 ppm", "value": 0}, {"measurement": "Powdery mildew, Foliar Treatment, Curative Effect", "setting": "Sphaerotheca fuliginea [1]; Table 9, 2.0 ppm", "value": 9}, {"measurement": "Powdery mildew, Foliar Treatment, Protective Effect", "setting": "Sphaerotheca fuliginea [1]; Table 9, 2.0 ppm", "value": 0}, {"measurement": "Powdery mildew, Soil Treatment, Protective Effect", "setting": "Sphaerotheca fuliginea [1]; Table 9, 2.0 ppm", "value": 0}, {"measurement": "Powdery mildew, Soil Treatment, Protective Effect", "setting": "Sphaerotheca fuliginea [1]; Table 9, 7.8 ppm", "value": 0}, {"measurement": "Powdery mildew, Soil Treatment, Protective Effect", "setting": "Sphaerotheca fuliginea [1]; Table 9, 31.3 ppm", "value": 9}, {"measurement": "Powdery mildew, Vapor Effect", "setting": "Sphaerotheca fuliginea [2]; Table 9, 2.0 ppm", "value": "-"}, {"measurement": "Powdery mildew, Vapor Effect", "setting": "Sphaerotheca fuliginea [2]; Table 9, 7.8 ppm", "value": "-"}, {"measurement": "Powdery mildew, Vapor Effect", "setting": "Sphaerotheca fuliginea [2]; Table 9, 31.3 ppm", "value": "-"}, {"measurement": "Gray Mold, Percent Disease Control, Curative Spraying", "setting": "Botrytis cinerea; Table 9, 7.8 ppm", "value": 0, "unit": "%"}, {"measurement": "Gray Mold, Percent Disease Control, Protective Spraying", "setting": "Botrytis cinerea; Table 9, 7.8 ppm", "value": 3, "unit": "%"}, {"measurement": "Gray Mold, Percent Disease Control, Curative Spraying", "setting": "Botrytis cinerea; Table 9, 31.3 ppm", "value": 0, "unit": "%"}, {"measurement": "Gray Mold, Percent Disease Control, Protective Spraying", "setting": "Botrytis cinerea; Table 9, 31.3 ppm", "value": 5, "unit": "%"}, {"measurement": "Gray Mold, Percent Disease Control, Curative Spraying", "setting": "Botrytis cinerea; Table 9, 125 ppm", "value": 9, "unit": "%"}, {"measurement": "Gray Mold, Percent Disease Control, Protective Spraying", "setting": "Botrytis cinerea; Table 9, 125 ppm", "value": 0, "unit": "%"}]}, {"smiles": "CC(C)(C)C(=O)C(Oc1ccc(Cl)cc1)n1cncn1", "note": "(stereo not drawn) [Triadimefon, reference compound]", "values": [{"measurement": "Foliar Treatment, Curative Effect", "setting": "Sphaerotheca fuliginea [1]; second Table 4, 0.5 ppm", "value": 0}, {"measurement": "Foliar Treatment, Protective Effect", "setting": "Sphaerotheca fuliginea [1]; second Table 4, 0.5 ppm", "value": 0}, {"measurement": "Soil Treatment, Protective Effect", "setting": "Sphaerotheca fuliginea [1]; second Table 4, 0.5 ppm", "value": 0}, {"measurement": "Foliar Treatment, Curative Effect", "setting": "Sphaerotheca fuliginea [1]; second Table 4, 2.0 ppm", "value": 9}, {"measurement": "Foliar Treatment, Protective Effect", "setting": "Sphaerotheca fuliginea [1]; second Table 4, 2.0 ppm", "value": "7 (Disease sign is observed on the leaf in about 20%.)"}, {"measurement": "Soil Treatment, Protective Effect", "setting": "Sphaerotheca fuliginea [1]; second Table 4, 2.0 ppm", "value": 0}, {"measurement": "Foliar Treatment, Curative Effect", "setting": "Sphaerotheca fuliginea [1]; second Table 4, 7.8 ppm", "value": 10}, {"measurement": "Foliar Treatment, Protective Effect", "setting": "Sphaerotheca fuliginea [1]; second Table 4, 7.8 ppm", "value": 9}, {"measurement": "Soil Treatment, Protective Effect", "setting": "Sphaerotheca fuliginea [1]; second Table 4, 7.8 ppm", "value": "3 (Disease sign is observed on the leaf in about 50%.)"}, {"measurement": "Foliar Treatment, Curative Effect", "setting": "Sphaerotheca fuliginea [1]; second Table 4, 31.3 ppm", "value": 10}, {"measurement": "Foliar Treatment, Protective Effect", "setting": "Sphaerotheca fuliginea [1]; second Table 4, 31.3 ppm", "value": 10}, {"measurement": "Soil Treatment, Protective Effect", "setting": "Sphaerotheca fuliginea [1]; second Table 4, 31.3 ppm", "value": 10}, {"measurement": "Protective Effect by Vapor", "setting": "Sphaerotheca fuliginea [2]; Table 6, 0.5 ppm", "value": "-"}, {"measurement": "Protective Effect by Vapor", "setting": "Sphaerotheca fuliginea [2]; Table 6, 2.0 ppm", "value": "-"}, {"measurement": "Protective Effect by Vapor", "setting": "Sphaerotheca fuliginea [2]; Table 6, 7.8 ppm", "value": "-"}, {"measurement": "Protective Effect by Vapor", "setting": "Sphaerotheca fuliginea [2]; Table 6, 31.3 ppm", "value": "-"}, {"measurement": "Percent Disease Control, Curative Spraying", "setting": "Puccinia coronata; curative", "value": 100, "unit": "%"}, {"measurement": "Percent Disease Control, Protective Spraying", "setting": "Puccinia coronata; protective", "value": 100, "unit": "%"}]}]}
